# Structures can show the parent of a compound that is named as a salt.
row,melting point,SMILES
1,167 °C,CC(c1nc2ccccc2c(=O)n1-c1ccc(F)cc1)N(Cc1cccnc1)C(=O)Cc1ccc(C(F)(F)F)cc1 (racemic)
2,57 to 60 °C,CCOCCN(C(=O)Cc1cc(C(F)(F)F)cc(C(F)(F)F)c1)[C@H](C)c1nc2ccccc2c(=O)n1-c1ccc(OCC)cc1 [Compound 3.25]
3,61.3 °C,COc1ccc(-n2c(C(C)N(CCN(C)C)C(=O)Cc3ccc(OCc4ccccc4)cc3)nc3ccccc3c2=O)cc1 (stereo not drawn) [Compound 1.36]
4,150.6 °C,CCOCCN(C(=O)Cc1ccc(-c2ccccc2)cc1)C(C)c1nc2ccccc2c(=O)n1-c1ccc(F)cc1 (stereo not drawn) [Compound 1.19]
5,153 °C,CC(c1nc2ccccc2c(=O)n1-c1ccc(F)cc1)N(CCN(C)C)C(=O)Cc1ccccc1 (stereo not drawn)
6,137 to 138 °C,CCOCCN(C(=O)Cc1ccc(F)c(C(F)(F)F)c1)[C@H](C)c1nc2ccccc2c(=O)n1-c1ccc(OCC)cc1 [Compound 3.26]
7,146.3 °C,CCOCCN(C(=O)Cc1ccc(F)c(F)c1F)C(C)c1nc2ccccc2c(=O)n1-c1ccc(OCC)cc1 (stereo not drawn) [Compound 3.32]
8,173 to 174 °C,C[C@H](c1nc2ccccc2c(=O)n1-c1ccc(F)cc1)N(Cc1nccs1)C(=O)Cc1ccc(C(F)(F)F)cc1
9,167.9 °C,C[C@H](c1nc2ccccc2c(=O)n1-c1ccc(F)cc1)N(CCOCC(F)(F)F)C(=O)Cc1ccc(-c2ccccc2)cc1 [Compound 9.03]
10,116.3 °C,COc1ccc(-n2c(C(C)N(CCN3CCCC3)C(=O)Cc3ccc(-c4ccccc4)cc3)nc3ccccc3c2=O)cc1 (stereo not drawn) [Compound 1.34]
11,98.1 °C,CCOCCN(C(=O)Cc1ccc(-c2ccccc2)cc1)C(C)c1nc2ccccc2c(=O)n1-c1ccc(OCC)cc1 (stereo not drawn)
12,156.2 °C,C[C@H](c1nc2ccccc2c(=O)n1-c1ccc(F)cc1)N(CCOCC(F)(F)F)C(=O)Cc1ccc(C(F)(F)F)cc1 [Compound 9.04]
13,188.3 °C,Cc1ccc(CC(=O)N(CCN(C)C)C(C)c2nc3ccccc3c(=O)n2-c2ccc(F)cc2)cc1 (stereo not drawn)
14,167.5 °C,"CCOc1ccc(-n2c(C(C)N(Cc3ccccn3)C(=O)Cc3ccc(C(F)(F)F)cc3)nc3ccccc3c2=O)cc1 (stereo not drawn) (as salt: hydrochloride) [Compound 3.04, 2-((N-2-Picolyl)-N-(4-trifluoromethylphenylacetyl)-1-aminoethyl)-3-(4-ethoxyphenyl) -3H-quinazoline-4-one]"
15,157.9 °C,CCOCCN(C(=O)Cc1cccc(C(F)(F)F)c1)C(C)c1nc2ccccc2c(=O)n1-c1ccc(OCC)cc1 (stereo not drawn) [Compound 9.08]
16,96.9 °C,COc1ccc(-n2c(C(C)N(CCN3CCCC3)C(=O)Cc3ccc(-c4ccccc4)cc3)nc3ccccc3c2=O)cc1F (stereo not drawn) [Compound 1.33]
17,75.5 °C,CCOc1ccc(-n2c(C(C)N(Cc3cccnc3)C(=O)Cc3ccc(F)c(F)c3)nc3ccccc3c2=O)cc1 (stereo not drawn) [Compound 3.34]
18,220 to 221 °C,CC(=O)CN(C(=O)Cc1ccc(C(F)(F)F)cc1)[C@H](C)c1nc2ccccc2c(=O)n1-c1ccc(F)cc1 [Compound 3.22]
19,146 to 148 °C,CCOCCN(C(=O)Cc1ccc(C(F)(F)F)c(F)c1)[C@H](C)c1nc2ccccc2c(=O)n1-c1ccc(OCC)cc1 [Compound 3.27]
20,103 to 104 °C,CCOc1ccc(-n2c([C@@H](C)N(Cc3cccnc3)C(=O)Cc3ccc(OCC(F)(F)F)cc3)nc3ccccc3c2=O)cc1 [Compound 3.28]
21,153 °C,CCOCCN(C(=O)Cc1ccc(OC(F)(F)F)cc1)C(C)c1nc2ccccc2c(=O)n1-c1ccc(OCC)cc1 (stereo not drawn) [Compound 3.30]
22,73.3 °C,"C#Cc1ccc(-n2c(C(C)N(CCOC)C(=O)Cc3ccc(-c4ccccc4)cc3)nc3ccccc3c2=O)cc1 (stereo not drawn) [Compound 3.12, 2-((N-2-Methoxyethyl)-N-(4-phenylphenylacetyl)-1-aminoethyl)-3-(4-ethynylphenyl) -3H-quinazoline-4-one]"
23,147.3 °C,CC(c1nc2ccccc2c(=O)n1-c1ccc(F)cc1)N(CCN(C)C)C(=O)c1ccc(-c2ccccc2)cc1 (stereo not drawn) [Compound 1.06]
24,153.8 °C,COCCN(C(=O)Cc1ccc(-c2ccccc2)cc1)C(C)c1nc2ccccc2c(=O)n1-c1ccc(F)cc1 (stereo not drawn) [Compound 1.17]
